# Measured values from patent EP0003794B1, “Testosterone esters, process for their preparation and pharmaceutical compositions containing them” (priority 1978, dated 1979).
# Legend:
# [1] = type: in vivo, Paviane; conditions: 50 mg i.m. in 1 ml Rizinusöl/Benzylbenzoat (6:4), female baboons
# Protocol: Die gleichmäßige, anhaltende Bereitstellung von Testosteron aus den erfindungsgemäßen Estern kann durch Bestimmung der Testosteronkonzentration im Plasma mittels Radioimmunoassay nachgewiesen werden.
# Zu diesem Zweck erhielten zwei weibliche Paviane je 50 mg Testosteron-O-hexadecanoylglykolat in 1 ml Rizinusöl/Benzylbenzoat (6:4) intramuskular. Die Testosteron-Plasmaspiegel lagen zwischen dem 2. und 40. Tag im Bereich zwischen 15 und 25 ng/ml Plasma.
# [2] = Testosterone plasma concentration (radioimmunoassay) and bioavailability after oral application in peanut oil, female dogs; i.m. testosterone as the reference; type: in vivo, Hunden
# Protocol: Es wurde der zeitliche Verlauf der Testosteronkonzentration im Plasma von weiblichen Hunden von ca. 10 kg Gewicht nach oraler Applikation von 50 mg Testosteron-0-hexadecanoylglykolat (= 25 mg Testosteron) und von 40 mg Testosteronundecylat (= 25 mg Testosteron) im Vergleich zur […] Applikation von 25 mg Testosteron gemessen. Die Testosteronbestimmung im Plasma erfolgte mittels Radioimmunoassay. Zur Applikation wurden die geprüften Substanzen in Erdnußöl gelöst.
# Die Bioverfügbarkeit wurde berechnet als Quotient der Flächen unter der Testosteronplasmaspiegelkurve (0-8 Stunden) nach oraler Applikation der geprüften Substanzen und der Fläche unter der Testosteronplasinaspiegelkurve nach intramuskulärer Applikation von Testosteron.
# [3] = Recent Progress in Hormone Research, Volume XIII, 389-396, Fig. 1 and Fig. 4; cited from earlier work
Compound,Wirkung (Verlauf) im Vergleich zu Testosteronönanthat [3],other results
CCCCCCCCCCCCCCCC(=O)OCC(=O)O[C@H]1CC[C@H]2[C@@H]3CCC4=CC(=O)CC[C@]4(C)[C@H]3CC[C@]12C [Testosteron-O-hexadecanoylglykolat],–,Freisetzung des Testosterons aus dem Depot [1]: fast vollständig freigesetzt
"C[C@]12CC[C@H]3[C@@H](CCC4=CC(=O)CC[C@@]43C)[C@@H]1CC[C@@H]2O [Testosteron (T), Testosteron]",–,"AUC at 8 h ([2]; dog, plasma, oral, in Erdnußöl, dose ≙ 25 mg Testosteron, female dogs ca. 10 kg, testosterone by radioimmunoassay, read-out: Fläche unter Plasma-spiegel (0 – 8 h)): 10.6 ng·h/mL; Bioverfügbarkeit bezogen auf i.m. Applikation ([2]; in vivo): 1,29%"
CCCCCCCCCCC(=O)O[C@H]1CC[C@H]2[C@@H]3CCC4=CC(=O)CC[C@]4(C)[C@H]3CC[C@]12C [Testosteronundecylat],etwas gleichmäßigere Wirkung als Testosteronönanthat,–
CCCCCCC(=O)O[C@H]1CC[C@H]2[C@@H]3CCC4=CC(=O)CC[C@]4(C)[C@H]3CC[C@]12C [Testosteronönanthat],"besonders hohe initiale Wirkung zeigt, die relativ rasch abfällt",–
CCCCCCCCCC(=O)CC(=O)O[C@H]1CC[C@H]2[C@@H]3CCC4=CC(=O)CC[C@]4(C)[C@H]3CC[C@]12C [Testosteroncaprinoylacetat],über 6 Wochen etwas gleichmäßigere aber insgesamt geringere Wirkung,–
